Patent US7696245B2, “Fluorescent probe for zinc” (Sekisui Medical Co., Ltd., priority 2003, dated 2010)

What was measured:
CHO cells = test: Fluorescence intensity when zinc ions were intracellularly introduced into CHO cells; assay type: cell-based
Procedure: Changes in fluorescence intensity were investigated when zinc ions in various concentrations were intracellularly introduced by using CHO cells. […] After the cells were washed with PBS(−) 3 times, the reagent was added as shown in the following Table 1, and changes in fluorescence intensity were measured.

[1] = read-out: Kd value for zinc ions; cited from earlier work
[2] = Rate constant of complex formation with zinc ions (stopped-flow); assay type: physicochemical; details: 1 μM compound, 50 μM zinc ions, 100 mM HEPES buffer (pH 7.4), 25° C.
Procedure: The rate constant of the formation of a complex between zinc ions and each of Compounds 8, 13, 17, and 22 were investigated. Changes with time of fluorescence intensity were measured in a stopped-flow manner after the compound was mixed in 100 mM HEPES buffer (pH 7.4) at 25° C. to adjust the final concentration of the compound to 1 μM and that of zinc ions to 50 μM. The rate constant of complex formation was calculated by using the graph to give 1.6×10^6 M^−1s^−1 for Compound 8, 1.4×10^6 M^−1s^−1 for Compound 13, 7.8×10^4 M^−1s^−1 for Compound 17, and 1.3×10^6 M^−1s^−1 for Compound 22. […] Therefore, it is understood that zinc ions can be detected in a very short period of time, and rapid changes in the concentration of zinc ions can also be detected by using these compounds.

SMILES | rate constant of complex formation [2] [M⁻¹ s⁻¹] | other results
CC(=O)Oc1ccc2c(c1)Oc1cc(OC(C)=O)ccc1C21OC(=O)c2ccc(NCCN(Cc3ccccn3)Cc3ccccn3)cc21 [ZnAF-2DA, reference compound] | – | zinc ion concentration at which fluorescence intensity reached the plateau (CHO cells; CHO cells dyed with 10 μM probe, 100 μM pyrithione plus ZnSO4): 3 µM; Kd [1]: 2.7 nM
O=C(O)c1ccc(NCCN(CCc2ccccn2)CCc2ccccn2)cc1-c1c2ccc(=O)cc-2oc2cc(O)ccc12 [Compound 17] | 78000 | –
CC(=O)Oc1ccc2c(c1)Oc1cc(OC(C)=O)ccc1C21OC(=O)c2ccc(NCCN(CCc3ccccn3)Cc3ccccn3)cc21 [Compound 28] | – | change of fluorescence intensity of dyed cells with elevation of zinc ions introduced (CHO cells; CHO cells, 100 μM pyrithione, 0.3-300 μM ZnSO4): increased stepwise
O=C(O)c1ccc(NCCNCc2ccccn2)cc1-c1c2ccc(=O)cc-2oc2cc(O)ccc12 [Compound 8] | 1.6e+06 | –
Cc1cccc(CN(CCNc2ccc(C(=O)O)c(-c3c4ccc(=O)cc-4oc4cc(O)ccc34)c2)Cc2ccccn2)n1 [Compound 22] | 1.3e+06 | –
O=C(O)c1ccc(NCCN(CCc2ccccn2)Cc2ccccn2)cc1-c1c2ccc(=O)cc-2oc2cc(O)ccc12 [Compound 13] | 1.4e+06 | –
